# Measured values as given in US7834019B2, “Substituted pyrazolo[3,4-d]pyrimidinone derivatives” (Banyu Pharmaceutical Co., Ltd., priority 2006, dated 2010).
# pEC50: −log10 of the molar value.
# Experiments:
# [1] = test system: Human colon cancer cells WiDr; experiment: Tumor growth-inhibitory effect, WiDr tumor implanted subcutaneously in nude rats; format: in vivo, F344/N Jcl-mu nude rats; details: compound alone 0.75 mg/kg/hr, continuous intravenous injection for 8 hours
# Method: Pharmaceutical Test 4 (Tumor Growth-Inhibitory Effect)
# Human colon cancer cells WiDr (gotten from ATCC) were implanted into the subcutaneous area of the back of F344/N Jcl-mu nude rats. Eight days after the implantation, gemcitabine (50 mg/kg, Gemzar injection, Eli-Lilly) was intravenously administered to them; and after 24 hours, a test compound was dissolved in a solvent (5% glucose) and given to them through continuous intravenous injection for 8 hours. The tumor volume (0.5×(major diameter)×(minor diameter)^2) was determined on day 0, 3, 6, 10 and 13. Day 0 means the day on which gemcitabine was administered. The relative tumor volume is a relative value, as calculated on the basis of the tumor volume of 1 on day 0. The tumor growth percentage (% T/C) was obtained according to the following formula:
# When the tumor volume change from day 0 in the group subjected to test compound administration is more than 0 (>0): % T/C=[(tumor volume change in the test compounds on day 3, 6, 10, 13)/(tumor volume change in the control on day 3, 6, 10, 13)]×100. When the tumor volume change from day 0 in the group subjected to test compound administration is less than 0 (<0): % T/C=[(tumor volume change in the test compounds on day 3, 6, 10, 13)/(tumor volume […])]×100.
# [2] = test system: Human colon cancer cells (WiDr); experiment: Checkpoint escape effect in WiDr cells + gemcitabine (phosphorylated histone H3-positive cells); format: cell-based; details: gemcitabine 100 nM for 24 hours, then test compound with nocodazole for 8 hours
# From the text: Pharmaceutical Text 3 (Method of Determining Drug Potency in Cells (Checkpoint-Removing Effect))
# Fetal bovine serum (FBS) was obtained from Morgate; DMEM was from Invitrogen; gemcitabine was from Nippon Eli Lilly; nocodazole and 4′,6-diamidino-2-phenylindole were from Sigma; rabbit anti-phosphorylated histone H3 antibody was from Upstate; and fluorescence-labeled (Alexa Fluor 488) anti-rabbit IgG antibody was from Molecular Probe.
# Human colon cancer cells (WiDr) were obtained from American Type Culture Collection (ATCC).
# The cells were suspended in DMEM containing 10% FBS, and the cell suspension was applied to a poly-D-lysine-coated 96-well plastic plate (bought from Becton Dickinson) in an amount of 2000 cells/100 μL/well, in which the cells were incubated overnight in 5% CO2-95% air at 37° C. […] Next, this was washed with PBS, and a solution containing 4′,6-diamidino-2-phenylindole that had been diluted with 1% BSA/PBS to have a concentration 10 μg/mL and a fluorescence-labeled (Alexa Fluor 488) anti-rabbit IgG antibody that had been diluted 250-fold was added to it in an amount 50 μL/well, and reacted in a dark place at room temperature for 60 minutes. Finally, this was washed with PBS, and its fluorescence intensity was determined to calculate the ratio of the phosphorylated histone H3-positive cells (cells that had been in a cell division cycle through removal of checkpoint). […]
smiles,measurement,setting,value
"C=CCn1c(=O)c2cnc(Nc3ccc(N4CCN(C)CC4)cc3)nc2n1-c1cccc(C(C)(C)O)n1 [Example 53, 2-allyl-1-[6-(1-hydroxy-1-methylethyl)pyridin-2-yl]-6-{[4-(4-methylpiperazin-1-yl)phenyl]amino}-1,2-dihydro-3H-pyrazolo[3,4-d]pyrimidin-3-one]",% T/C day 3,[1]; day 3,86%
same,% T/C day 6,[1]; day 6,74%
same,% T/C day 10,[1]; day 10,81%
same,% T/C day 13,[1]; day 13,89%
same,pEC50,[2],6.68
